# Data from patent US9302999B2, “Substituted triazoles as herbicides” (E. I. DU PONT DE NEMOURS AND COMPANY, priority 2012, dated 2016).
# How the values were obtained:
# Assay type in all cases: in vivo
# [1] = test system: barnyardgrass (Echinochloa crus-galli); test: Test A pre-/postemergence: barnyardgrass; settings: Postemergence, 0 to 100 scale, 0 is no effect, 100 is complete control; for Plant response rating, Barnyardgrass: 125 g ai/ha; for Barnyardgrass plant response rating: 500 g ai/ha
# How it was run: (§1)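 Pre: directed soil spray after planting in loam + sand. Post: same formulation (non-phytotoxic solvent + surfactant) on 1–2-leaf plants, 2–10 cm. Greenhouse ~10 d; visual injury 0–100 vs untreated.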
# [2] = test system: crabgrass, large (large crabgrass, Digitaria sanguinalis); test: Test A pre-/postemergence: crabgrass, large
# How it was run: as §1
# [3] = test system: morningglory (Ipomoea spp.); test: Test A pre-/postemergence: morningglory
# How it was run: as §1
# [4] = test system: pigweed (Amaranthus retroflexus); test: Test A pre-/postemergence: pigweed
# How it was run: as §1
# rice (Oryza sativa) = test: Test B flooded paddy: rice; settings: Flood; 250 g ai/ha; applied to paddy water at 2-leaf stage; visually evaluated after 13 to 15 days
# How it was run: (§2)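 Plants were grown to the 2-leaf stage and pots flooded to 3 cm above soil. Compounds were applied directly into the paddy water, with depth kept for the test. After 13–15 days in greenhouse, response was rated visually against controls on a 0 (no effect) to 100 (complete control) scale.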
# [5] = test system: barnyardgrass (Echinochloa crus-galli); test: Test B flooded paddy: barnyardgrass; settings: Flood; 250 g ai/ha; applied to paddy water at 2-leaf stage; visually evaluated after 13 to 15 days
# How it was run: as §2
# [6] = test system: blackgrass (Alopecurus myosuroides); test: Test C pre-/postemergence: blackgrass
# How it was run: (§3)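 Preemergence on seeds in loam/sand, postemergence on 2–18 cm (1–4-leaf) plants in peat-based medium; compounds in non-phytotoxic solvent with surfactant. After 13–15 days in greenhouse, visual rating versus controls, 0 (no effect) to 100 (complete control).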
# [7] = test system: lambsquarters (Chenopodium album); test: Test C pre-/postemergence: lambsquarters
# How it was run: as §3
# [8] = test system: ragweed (common ragweed, Ambrosia elation); test: Test C pre-/postemergence: ragweed
# How it was run: as §3
# soybean (Glycine max) = test: Test C pre-/postemergence: soybean
# How it was run: as §3
# [9] = Postemergence, 125 g ai/ha, 0 to 100 scale, 0 is no effect, 100 is complete control
# [10] = Postemergence, 500 g ai/ha, 0 to 100 scale, 0 is no effect, 100 is complete control
# [11] = Preemergence, 125 g ai/ha, 0 to 100 scale where 0 is no effect and 100 is complete control
# [12] = Preemergence, 500 g ai/ha, 0 to 100 scale (0 no effect, 100 complete control)
# [13] = Postemergence, 31 g ai/ha, scale 0 to 100 (0 no effect, 100 complete control)
# [14] = Postemergence, 62 g ai/ha, scale 0 to 100 (0 no effect, 100 complete control)
# [15] = Postemergence, 125 g ai/ha, scale 0 to 100, 0 no effect, 100 complete control
# [16] = Postemergence, 250 g ai/ha, scale 0 to 100
# [17] = Preemergence, 31 g ai/ha, scale 0 (no effect) to 100 (complete control)
# [18] = Preemergence, 62 g ai/ha, scale of 0 to 100, 0 is no effect, 100 is complete control
# [19] = Preemergence, 125 g ai/ha, scale 0 to 100, 0 no effect, 100 complete control
# [20] = Preemergence, 250 g ai/ha, scale 0 to 100, 0 no effect, 100 complete control
# [21] = Postemergence, 250 g ai/ha, scale 0 to 100 (0 no effect, 100 complete control)
structure (smiles),measurement,setting,value
CCCc1nn(-c2ccc(C(F)(F)F)cc2)nc1Oc1ccnc(C(F)(F)F)c1 [Compound 170],"Plant response rating, Barnyardgrass",[1],90
same,Barnyardgrass plant response rating,[1],90
same,"Plant response rating, Crabgrass, Large",[2]; [9],100
same,"Crabgrass, Large plant response rating",[2]; [10],100
same,"Plant response rating, Crabgrass, Large",[2]; [11],100
same,"Plant response rating, Crabgrass, Large",[2]; [12],100
same,"Plant response rating, Morningglory",[3]; [9],100
same,Morningglory plant response rating,[3]; [10],100
same,"Plant response rating, Morningglory",[3]; [11],70
same,"Plant response rating, Morningglory",[3]; [12],90
same,"Plant response rating, Pigweed",[4]; [9],100
same,Pigweed plant response rating,[4]; [10],100
same,"Plant response rating, Pigweed",[4]; [11],100
same,"Plant response rating, Pigweed",[4]; [12],100
same,"Plant response rating, Rice (0 to 100 scale, 0 is no effect, 100 is complete control)",rice (Oryza sativa),60
same,"Plant response rating, Barnyardgrass (0 to 100 scale, 0 is no effect, 100 is complete control)",[5],80
same,"Plant response rating, Blackgrass",[6]; [13],10
same,"Plant response rating, Blackgrass",[6]; [14],10
same,"Plant response rating, Blackgrass",[6]; [15],60
same,"Plant response rating, Blackgrass",[6]; [16],70
same,"Plant response rating, Blackgrass",[6]; [17],90
same,"Plant response rating, Blackgrass",[6]; [18],95
same,"Plant response rating, Blackgrass",[6]; [19],100
same,"Plant response rating, Blackgrass",[6]; [20],100
same,"Plant response rating, Lambsquarters",[7]; [13],85
same,"Plant response rating, Lambsquarters",[7]; [14],95
same,"Plant response rating, Lambsquarters",[7]; [15],95
same,"Plant response rating, Lambsquarters",[7]; [21],98
same,"Plant response rating, Lambsquarters",[7]; [17],85
same,"Plant response rating, Lambsquarters",[7]; [18],85
same,"Plant response rating, Lambsquarters",[7]; [19],98
same,"Plant response rating, Lambsquarters",[7]; [20],98
same,"Plant response rating, Ragweed",[8]; [13],85
same,"Plant response rating, Ragweed",[8]; [14],85
same,"Plant response rating, Ragweed",[8]; [15],90
same,"Plant response rating, Ragweed",[8]; [21],90
same,"Plant response rating, Ragweed",[8]; [17],5
same,"Plant response rating, Ragweed",[8]; [18],60
same,"Plant response rating, Ragweed",[8]; [19],75
same,"Plant response rating, Ragweed",[8]; [20],95
same,"Plant response rating, Soybean",soybean (Glycine max); [13],30
same,"Plant response rating, Soybean",soybean (Glycine max); [14],70
same,"Plant response rating, Soybean",soybean (Glycine max); [15],90
same,"Plant response rating, Soybean",soybean (Glycine max); [17],5
same,"Plant response rating, Soybean",soybean (Glycine max); [18],5
same,"Plant response rating, Soybean",soybean (Glycine max); [19],20
same,"Plant response rating, Soybean",soybean (Glycine max); [20],45
CCc1nn(-c2ccc(F)c(F)c2)nc1Oc1ccnc(C(F)(F)F)c1 [Compound 171],"Plant response rating, Barnyardgrass",[1],80
same,Barnyardgrass plant response rating,[1],90
same,"Plant response rating, Crabgrass, Large",[2]; [9],90
same,"Crabgrass, Large plant response rating",[2]; [10],100
same,"Plant response rating, Crabgrass, Large",[2]; [11],100
same,"Plant response rating, Crabgrass, Large",[2]; [12],100
same,"Plant response rating, Morningglory",[3]; [9],100
same,Morningglory plant response rating,[3]; [10],100
same,"Plant response rating, Morningglory",[3]; [11],50
same,"Plant response rating, Morningglory",[3]; [12],60
same,"Plant response rating, Pigweed",[4]; [9],100
same,Pigweed plant response rating,[4]; [10],100
same,"Plant response rating, Pigweed",[4]; [11],100
same,"Plant response rating, Pigweed",[4]; [12],100
same,"Plant response rating, Rice (0 to 100 scale, 0 is no effect, 100 is complete control)",rice (Oryza sativa),60
same,"Plant response rating, Barnyardgrass (0 to 100 scale, 0 is no effect, 100 is complete control)",[5],70
same,"Plant response rating, Blackgrass",[6]; [13],5
same,"Plant response rating, Blackgrass",[6]; [14],10
same,"Plant response rating, Blackgrass",[6]; [15],10
same,"Plant response rating, Blackgrass",[6]; [16],30
same,"Plant response rating, Blackgrass",[6]; [17],5
same,"Plant response rating, Blackgrass",[6]; [18],98
same,"Plant response rating, Blackgrass",[6]; [19],100
same,"Plant response rating, Blackgrass",[6]; [20],100
same,"Plant response rating, Lambsquarters",[7]; [13],75
same,"Plant response rating, Lambsquarters",[7]; [14],75
same,"Plant response rating, Lambsquarters",[7]; [15],95
same,"Plant response rating, Lambsquarters",[7]; [21],95
same,"Plant response rating, Lambsquarters",[7]; [17],100
same,"Plant response rating, Lambsquarters",[7]; [18],100
same,"Plant response rating, Lambsquarters",[7]; [20],100
same,"Plant response rating, Ragweed",[8]; [13],55
same,"Plant response rating, Ragweed",[8]; [14],55
same,"Plant response rating, Ragweed",[8]; [15],55
same,"Plant response rating, Ragweed",[8]; [21],55
same,"Plant response rating, Ragweed",[8]; [17],0
same,"Plant response rating, Ragweed",[8]; [18],5
same,"Plant response rating, Ragweed",[8]; [19],10
same,"Plant response rating, Ragweed",[8]; [20],15
same,"Plant response rating, Soybean",soybean (Glycine max); [13],25
same,"Plant response rating, Soybean",soybean (Glycine max); [14],35
same,"Plant response rating, Soybean",soybean (Glycine max); [15],40
same,"Plant response rating, Soybean",soybean (Glycine max); [17],0
same,"Plant response rating, Soybean",soybean (Glycine max); [18],0
same,"Plant response rating, Soybean",soybean (Glycine max); [19],5
